According to patent US10344060B2 (priority 2013, dated 2019):
Like-named read-outs stand apart in the source and are kept apart here.

Target: hNav1.7 (Homo sapiens, UniProt Q15858)
Assay: cell-based
Format: cell-based
[1] = Table 12, PatchXpress, tonic block, read-out: PX hNav1.7 Tonic IC50
[2] = ratio of PX tonic IC50 values, Table 11

hNav1.7, sequence (Q15858 whole entry): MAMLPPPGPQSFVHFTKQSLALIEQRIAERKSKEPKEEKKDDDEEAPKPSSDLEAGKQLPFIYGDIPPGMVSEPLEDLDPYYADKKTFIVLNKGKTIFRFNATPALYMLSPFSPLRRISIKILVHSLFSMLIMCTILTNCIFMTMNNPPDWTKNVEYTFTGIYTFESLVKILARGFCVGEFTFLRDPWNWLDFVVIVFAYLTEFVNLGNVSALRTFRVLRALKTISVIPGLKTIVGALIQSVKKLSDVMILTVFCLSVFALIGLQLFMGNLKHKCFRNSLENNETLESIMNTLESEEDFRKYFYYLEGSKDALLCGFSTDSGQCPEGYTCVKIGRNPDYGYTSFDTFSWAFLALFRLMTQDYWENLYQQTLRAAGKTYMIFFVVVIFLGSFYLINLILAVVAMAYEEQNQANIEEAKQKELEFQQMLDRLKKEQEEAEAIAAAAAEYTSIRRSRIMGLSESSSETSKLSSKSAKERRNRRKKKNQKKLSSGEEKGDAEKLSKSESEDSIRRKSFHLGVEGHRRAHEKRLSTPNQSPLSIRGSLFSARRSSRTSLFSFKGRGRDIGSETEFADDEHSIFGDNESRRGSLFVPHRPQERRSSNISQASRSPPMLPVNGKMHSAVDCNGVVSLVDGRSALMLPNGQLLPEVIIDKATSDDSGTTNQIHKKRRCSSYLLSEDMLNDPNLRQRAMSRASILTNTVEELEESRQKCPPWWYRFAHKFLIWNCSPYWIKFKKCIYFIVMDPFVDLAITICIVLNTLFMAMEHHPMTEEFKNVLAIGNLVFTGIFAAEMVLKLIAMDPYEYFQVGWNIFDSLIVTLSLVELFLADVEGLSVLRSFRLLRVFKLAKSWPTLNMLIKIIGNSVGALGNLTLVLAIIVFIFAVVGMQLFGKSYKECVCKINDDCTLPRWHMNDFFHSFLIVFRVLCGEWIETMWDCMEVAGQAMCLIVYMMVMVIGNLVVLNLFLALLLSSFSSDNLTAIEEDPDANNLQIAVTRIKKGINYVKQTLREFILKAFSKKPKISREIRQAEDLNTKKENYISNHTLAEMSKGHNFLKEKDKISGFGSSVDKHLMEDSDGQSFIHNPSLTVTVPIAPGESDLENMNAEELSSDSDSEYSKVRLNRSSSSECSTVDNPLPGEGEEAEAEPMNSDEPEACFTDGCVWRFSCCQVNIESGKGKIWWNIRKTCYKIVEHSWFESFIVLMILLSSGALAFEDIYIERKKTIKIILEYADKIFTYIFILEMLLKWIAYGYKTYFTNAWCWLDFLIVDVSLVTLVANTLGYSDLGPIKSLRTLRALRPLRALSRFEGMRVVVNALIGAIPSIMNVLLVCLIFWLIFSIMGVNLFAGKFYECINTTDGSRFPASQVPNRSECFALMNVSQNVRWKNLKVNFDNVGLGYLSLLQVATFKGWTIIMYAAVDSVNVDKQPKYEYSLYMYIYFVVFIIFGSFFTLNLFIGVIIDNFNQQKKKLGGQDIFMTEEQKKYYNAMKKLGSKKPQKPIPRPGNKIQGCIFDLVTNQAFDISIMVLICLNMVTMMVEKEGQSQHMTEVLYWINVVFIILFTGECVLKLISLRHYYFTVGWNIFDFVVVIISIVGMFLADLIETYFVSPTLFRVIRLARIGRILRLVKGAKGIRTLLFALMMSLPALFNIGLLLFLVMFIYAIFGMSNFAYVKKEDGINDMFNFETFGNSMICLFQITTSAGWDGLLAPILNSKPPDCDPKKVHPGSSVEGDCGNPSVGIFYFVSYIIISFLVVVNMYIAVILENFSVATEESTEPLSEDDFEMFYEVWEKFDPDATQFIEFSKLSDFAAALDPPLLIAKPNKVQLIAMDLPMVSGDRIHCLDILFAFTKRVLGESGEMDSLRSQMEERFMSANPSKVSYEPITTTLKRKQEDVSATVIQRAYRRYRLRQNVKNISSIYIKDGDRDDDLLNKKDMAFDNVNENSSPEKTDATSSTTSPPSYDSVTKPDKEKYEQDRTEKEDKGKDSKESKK

| Molecule | IC50 [1] [nM] | other results |
| --- | --- | --- |
| CC[C@H](C)[C@H](NC(=O)[C@@H](NC(=O)[C@H](CCCCN)NC(=O)[C@H](CCC(=O)O)NC(=O)[C@@H]1CSSC[C@@H]2NC(=O)[C@H](C)NC(=O)[C@H](CCCNC(=N)N)NC(=O)[C@H](CCCCN)NC(=O)[C@H](CO)NC(=O)[C@H](CC(=O)O)NC(=O)[C@@H]3CSSC[C@H](NC(=O)[C@H](CCCNC(=N)N)NC(=O)[C@H](CC(C)C)NC(=O)CNC(=O)[C@H](CCC(=O)O)NC(=O)[C@H](CSSC[C@H](NC(=O)[C@@H](N)Cc4ccc(O)cc4)C(=O)N[C@@H](CCC(N)=O)C(=O)N[C@@H](CCCCN)C(=O)N[C@@H](Cc4c[nH]c5ccccc45)C(=O)N[C@@H](CCSC)C(=O)N[C@@H](Cc4c[nH]c5ccccc45)C(=O)N[C@@H]([C@@H](C)O)C(=O)N3)NC2=O)C(=O)N[C@@H](CCCCN)C(=O)N[C@@H](CC(C)C)C(=O)N[C@@H](Cc2c[nH]c3ccccc23)C(=O)N1)[C@@H](C)CC)C(N)=O [compound 67] | – | IC50 (PatchXpress, tonic, Table 11, read-out: PX hNav1.7 Tonic IC50): > 1000 nM |
| C#CC[C@H](N)C(=O)N[C@@H](Cc1ccc(O)cc1)C(=O)N[C@H]1CSSC[C@@H]2NC(=O)[C@@H]3CSSC[C@@H](C(=O)N[C@@H](CCCNC(=N)N)C(=O)N[C@@H](CCCCN)C(=O)NCC(=O)N[C@H](C(N)=O)[C@@H](C)CC)NC(=O)[C@H](Cc4c[nH]c5ccccc45)NC(=O)[C@H](CC(C)C)NC(=O)[C@H](CCCCN)NC(=O)[C@H](CSSC[C@H](NC(=O)[C@H]([C@@H](C)O)NC(=O)[C@H](Cc4c[nH]c5ccccc45)NC(=O)[C@H](CCCC)NC(=O)[C@H](Cc4c[nH]c5ccccc45)NC(=O)[C@H](CCCCN)NC(=O)[C@H](CCC(N)=O)NC1=O)C(=O)N[C@@H](CC(=O)O)C(=O)N[C@@H](CO)C(=O)N[C@@H](CCCCN)C(=O)N[C@@H](CCCNC(=N)N)C(=O)N[C@@H](C)C(=O)N3)NC(=O)[C@H](CCCNC(=N)N)NC(=O)[C@H](CC(C)C)NC(=O)CNC(=O)[C@H](CCC(=O)O)NC2=O [compound 651] | 3.14 | – |
| C#CC[C@H](N)C(=O)N[C@@H](Cc1ccc(O)cc1)C(=O)N[C@H]1CSSC[C@@H]2NC(=O)[C@@H]3CSSC[C@@H](C(=O)N[C@@H](CCCNC(=N)N)C(=O)N[C@@H](CCCCN)C(=O)N[C@@H](CCC(=O)O)C(=O)N[C@H](C(N)=O)[C@@H](C)CC)NC(=O)[C@H](Cc4c[nH]c5ccccc45)NC(=O)[C@H](CC(C)C)NC(=O)[C@H](CCCCN)NC(=O)[C@H](CSSC[C@H](NC(=O)[C@H]([C@@H](C)O)NC(=O)[C@H](Cc4c[nH]c5ccccc45)NC(=O)[C@H](CCCC)NC(=O)[C@H](Cc4cccc5ccccc45)NC(=O)[C@H](CCCCN)NC(=O)[C@H](CCC(N)=O)NC1=O)C(=O)N[C@@H](CC(=O)O)C(=O)N[C@@H](CO)C(=O)N[C@@H](CCCCN)C(=O)N[C@@H](CCCNC(=N)N)C(=O)N[C@@H](C)C(=O)N3)NC(=O)[C@H](CCCNC(=N)N)NC(=O)[C@H](CC(C)C)NC(=O)CNC(=O)[C@H](CCC(=O)O)NC2=O [compound 841] | 70.9 | – |
| C#CC[C@H](N)C(=O)N[C@@H](Cc1ccc(O)cc1)C(=O)N[C@H]1CSSC[C@@H]2NC(=O)[C@@H]3CSSC[C@@H](C(=O)N[C@@H](CCCNC(=N)N)C(=O)N[C@@H](CCCCN)C(=O)N[C@@H](CCC(=O)O)C(=O)N[C@H](C(N)=O)[C@@H](C)CC)NC(=O)[C@H](Cc4c[nH]c5ccccc45)NC(=O)[C@H](CC(C)C)NC(=O)[C@H](CCCCN)NC(=O)[C@H](CSSC[C@H](NC(=O)[C@H]([C@@H](C)O)NC(=O)[C@H](Cc4c[nH]c5ccccc45)NC(=O)[C@H](CCCC)NC(=O)[C@H](Cc4c[nH]c5ccccc45)NC(=O)[C@H](CCCCN)NC(=O)[C@H](CCC(N)=O)NC1=O)C(=O)N[C@@H](CC(=O)O)C(=O)N[C@@H](CO)C(=O)N[C@@H](CCCCN)C(=O)N[C@@H](CCCNC(=N)N)C(=O)N[C@@H](C)C(=O)N3)NC(=O)[C@H](Cc1ccccc1)NC(=O)[C@H](CC(C)C)NC(=O)CNC(=O)[C@H](CCC(=O)O)NC2=O [compound 686] | 10.3 | – |
| C#CC[C@@H]1NC(=O)[C@@H]2CSSC[C@H](NC(=O)[C@H](CCC(=O)O)NC(=O)[C@H](CCC)NC(=O)[C@@H](N)CCC(=O)O)C(=O)N[C@@H](CCC(N)=O)C(=O)N[C@@H](CCCCN)C(=O)N[C@@H](Cc3c[nH]c4ccccc34)C(=O)N[C@@H](CCCC)C(=O)N[C@@H](Cc3c[nH]c4ccccc34)C(=O)N[C@@H]([C@@H](C)O)C(=O)N[C@H]3CSSC[C@H](NC(=O)[C@H](CCCNC(=N)N)NC(=O)[C@H](CC(C)C)NC(=O)CNC1=O)C(=O)N[C@@H](CCCCN)C(=O)N[C@@H](CC(C)C)C(=O)N[C@@H](Cc1c[nH]c4ccccc14)C(=O)N[C@H](C(=O)N[C@@H](CCCNC(=N)N)C(=O)N[C@@H](CCCCN)C(=O)N[C@@H](CCC(=O)O)C(=O)N[C@H](C(N)=O)[C@@H](C)CC)CSSC[C@H](NC(=O)[C@H](C)NC(=O)[C@H](CCCNC(=N)N)NC(=O)[C@H](CCCCN)NC(=O)[C@H](CCC(=O)O)NC(=O)[C@H](CC(=O)O)NC3=O)C(=O)N2 [compound 772] | 15.2 | – |
| [Phe6,Atz(500 Da EtO-PEG*-[Phe6,Atz13*]GpTx-1(1-34)1)13]GpTx-1(1-34) [Homodimeric Conjugate No. 4] | – | Wash out: Yes; IC50 (read-out: Nav1.7 PX IC50): 19 nM |
| CCCC[C@@H]1NC(=O)[C@H](Cc2c[nH]c3ccccc23)NC(=O)[C@H](CCCCN)NC(=O)[C@H](CCC(N)=O)NC(=O)[C@@H](NC(=O)[C@H](Cc2ccc(O)cc2)NC(=O)[C@H](CCC)NC(=O)[C@H](N)CC(C)C)CSSC[C@@H]2NC(=O)[C@@H]3CSSC[C@@H](C(=O)N[C@@H](CCCNC(=N)N)C(=O)N[C@@H](CCCCN)C(=O)N[C@@H](CCC(=O)O)C(=O)N[C@H](C(N)=O)[C@@H](C)CC)NC(=O)[C@H](Cc4c[nH]c5ccccc45)NC(=O)[C@H](CC(C)C)NC(=O)[C@H](CCCCN)NC(=O)[C@H](CSSC[C@H](NC(=O)[C@H]([C@@H](C)O)NC(=O)[C@H](Cc4c[nH]c5ccccc45)NC1=O)C(=O)N[C@@H](CC(=O)O)C(=O)N[C@@H](CO)C(=O)N[C@@H](CCCCN)C(=O)N[C@@H](CCCNC(=N)N)C(=O)N[C@@H](C)C(=O)N3)NC(=O)[C@H](CCCNC(=N)N)NC(=O)[C@H](CC(C)C)NC(=O)CNC(=O)[C@H](CCCCNC(=O)CCOCCOCCOCCOCCOCCOCCOCCOCCOCCOCCOCCOCCN)NC2=O [compound 473] | – | Nav1.4/Nav1.7 [2]: 34; Nav1.5/Nav1.7 [2]: 180 |
| C#CC[C@H](N)C(=O)N[C@@H](Cc1ccc(O)cc1)C(=O)N[C@H]1CSSC[C@@H]2NC(=O)[C@@H]3CSSC[C@@H](C(=O)N[C@@H](CCCNC(=N)N)C(=O)N[C@@H](CCCCN)C(=O)N[C@@H](CCC(=O)O)C(=O)N[C@H](C(N)=O)[C@@H](C)CC)NC(=O)[C@H](Cc4c[nH]c5ccccc45)NC(=O)[C@H](CC(C)C)NC(=O)[C@H](CCCCN)NC(=O)[C@H](CSSC[C@H](NC(=O)[C@H]([C@@H](C)O)NC(=O)[C@H](Cc4c[nH]c5ccccc45)NC(=O)[C@H](CCCC)NC(=O)[C@H](Cc4ccc5ccccc5c4)NC(=O)[C@H](CCCCN)NC(=O)[C@H](CCC(N)=O)NC1=O)C(=O)N[C@@H](CC(=O)O)C(=O)N[C@@H](CO)C(=O)N[C@@H](CCCCN)C(=O)N[C@@H](CCCNC(=N)N)C(=O)N[C@@H](C)C(=O)N3)NC(=O)[C@H](CCCNC(=N)N)NC(=O)[C@H](CC(C)C)NC(=O)CNC(=O)[C@H](CCC(=O)O)NC2=O [compound 842] | 21.7 | – |
